What was measured:
Assay type in all cases: in vivo
[1] = test system: AMARE (Amaranthus retoflexus); test: greenhouse pre-emergence herbicidal test, AMARE; details: 1.0 kg/ha, scale from 0 to 100
From the text: (§1) The culture containers used were plastic flowerpots containing loamy sand with approximately 3.0% of humus as the substrate. The seeds of the test plants were sown separately for each species.
(§2) For the pre-emergence treatment, the active ingredients, which had been suspended or emulsified in water, were applied directly after sowing by means of finely distributing nozzles. The containers were irrigated gently to promote germination and growth and subsequently covered with transparent plastic hoods until the plants had rooted. This cover caused uniform germination of the test plants, unless this has been impaired by the active ingredients.
(§3) Depending on the species, the plants were kept at 10-25° C. or 20-35° C. The test period extended over 2 to 4 weeks. During this time, the plants were tended, and their response to the individual treatments was evaluated.
(§4) Evaluation was carried out using a scale from 0 to 100. 100 means no emergence of the plants, or complete destruction of at least the aerial moieties, and 0 means no damage, or normal course of growth. A good herbicidal activity is given at values of at least 70 and a very good herbicidal activity is given at values of at least 85.

[2] = test system: ALOMY (Alopecurus myosuroides); test: greenhouse pre-emergence herbicidal test, ALOMY; details: scale from 0 to 100
From the text: as §1, §2, §3, §4

[3] = test system: APESV (Apera spica-venti); test: greenhouse pre-emergence herbicidal test, APESV; details: scale from 0 to 100
From the text: as §1, §2, §3, §4

[4] = test system: ECHCG (Echinochloa crus-galli); test: greenhouse pre-emergence herbicidal test, ECHCG; details: scale from 0 to 100
From the text: as §1, §2, §3, §4

SETFA (Setaria faberi) = test: greenhouse pre-emergence herbicidal test, SETFA; details: 1.0 kg/ha, scale from 0 to 100
From the text: as §1, §2, §3, §4

[5] = test system: AMARE (Amaranthus retoflexus); test: greenhouse post-emergence herbicidal test, AMARE; details: 1.0 kg/ha, scale from 0 to 100
From the text: as §1
(§5) For the post-emergence treatment, the test plants were first grown to a height of 3 to 15 cm, depending on the plant habit, and only then treated with the active ingredients which had been suspended or emulsified in water. For this purpose, the test plants were either sown directly and grown in the same containers, or they were first grown separately as seedlings and transplanted into the test containers a few days prior to treatment.
as §3, §4

[6] = test system: CHEAL (Chenopodium album); test: greenhouse post-emergence herbicidal test, CHEAL; details: 1.0 kg/ha, scale from 0 to 100
From the text: as §1, §5, §3, §4

[7] = test system: ECHCG (Echinochloa crus-galli); test: greenhouse post-emergence herbicidal test, ECHCG; details: scale from 0 to 100
From the text: as §1, §5, §3, §4

SETVI (Setaria viridis) = test: greenhouse post-emergence herbicidal test, SETVI; details: 1.0 kg/ha, scale from 0 to 100
From the text: as §1, §5, §3, §4

[8] = test system: ALOMY (Alopecurus myosuroides); test: greenhouse post-emergence herbicidal test, ALOMY; details: 0.5 kg/ha, scale from 0 to 100
From the text: as §1, §5, §3, §4

[9] = test system: APESV (Apera spica-venti); test: greenhouse post-emergence herbicidal test, APESV; details: 0.5 kg/ha, scale from 0 to 100
From the text: as §1, §5, §3, §4

SMILES | herbicidal activity against AMARE [1] | herbicidal activity against ALOMY ([2]; 1.0 kg/ha) | herbicidal activity against APESV ([3]; 1.0 kg/ha) | herbicidal activity against ECHCG ([4]; 1.0 kg/ha) | herbicidal activity against SETFA (SETFA (Setaria faberi)) | herbicidal activity against AMARE [5] | herbicidal activity against CHEAL [6] | herbicidal activity against ECHCG ([7]; 1.0 kg/ha) | herbicidal activity against SETVI (SETVI (Setaria viridis)) | herbicidal activity against ALOMY ([2]; 0.5 kg/ha) | herbicidal activity against APESV ([3]; 0.5 kg/ha) | herbicidal activity against ECHCG ([4]; 0.5 kg/ha) | herbicidal activity against ECHCG ([7]; 0.5 kg/ha) | herbicidal activity against ALOMY [8] | herbicidal activity against APESV [9]
CN1C(=O)C(C)(Cc2ccccc2)N(C)C(=O)C1Cc1ccccc1C#N (single isomer, unassigned) [Example 1 (main isomer 1), 2-[5-Benzyl-1,4,5-trimethyl-3,6-dioxopiperazine-2-ylmethyl]benzonitrile] | very good herbicidal activity (a very good herbicidal activity is given at values of at least 85) | very good herbicidal activity (a very good herbicidal activity is given at values of at least 85) | very good herbicidal activity (a very good herbicidal activity is given at values of at least 85) | very good herbicidal activity (a very good herbicidal activity is given at values of at least 85) | very good herbicidal activity (a very good herbicidal activity is given at values of at least 85) | very good herbicidal activity (a very good herbicidal activity is given at values of at least 85) | very good herbicidal activity (a very good herbicidal activity is given at values of at least 85) | very good herbicidal activity (a very good herbicidal activity is given at values of at least 85) | very good herbicidal activity (a very good herbicidal activity is given at values of at least 85) | – | – | – | – | – | –
CN1C(=O)C(C)(Cc2ccccc2)N(C)C(=O)C1Cc1ccccc1C#N (single isomer, unassigned) [Example 1 (minor isomer 2), 2-[5-Benzyl-1,4,5-trimethyl-3,6-dioxopiperazine-2-ylmethyl]benzonitrile] | – | – | – | – | – | – | – | – | – | very good herbicidal activity (a very good herbicidal activity is given at values of at least 85) | very good herbicidal activity (a very good herbicidal activity is given at values of at least 85) | very good herbicidal activity (a very good herbicidal activity is given at values of at least 85) | very good herbicidal activity (a very good herbicidal activity is given at values of at least 85) | very good herbicidal activity (a very good herbicidal activity is given at values of at least 85) | very good herbicidal activity (a very good herbicidal activity is given at values of at least 85)

Reference: patent US20100173777A1, “Piperazine Compounds Having Herbicidal Action” (BASF SE, priority 2007, published 2010)
